In US10494332B2, “Protein tyrosine phosphatases or SHP2 inhibitors and uses thereof” (Indiana University Research and Technology Corporation, priority 2015, dated 2019):

Key:
Assay type in all cases: biochemical
PTP1B = molecular target: T1, PTP1B (Homo sapiens, UniProt P18031); test: PTP inhibition assay (pNPP); conditions: pNPP at Km, pH 7.0, 25° C.
T1 sequence (P18031 1-435): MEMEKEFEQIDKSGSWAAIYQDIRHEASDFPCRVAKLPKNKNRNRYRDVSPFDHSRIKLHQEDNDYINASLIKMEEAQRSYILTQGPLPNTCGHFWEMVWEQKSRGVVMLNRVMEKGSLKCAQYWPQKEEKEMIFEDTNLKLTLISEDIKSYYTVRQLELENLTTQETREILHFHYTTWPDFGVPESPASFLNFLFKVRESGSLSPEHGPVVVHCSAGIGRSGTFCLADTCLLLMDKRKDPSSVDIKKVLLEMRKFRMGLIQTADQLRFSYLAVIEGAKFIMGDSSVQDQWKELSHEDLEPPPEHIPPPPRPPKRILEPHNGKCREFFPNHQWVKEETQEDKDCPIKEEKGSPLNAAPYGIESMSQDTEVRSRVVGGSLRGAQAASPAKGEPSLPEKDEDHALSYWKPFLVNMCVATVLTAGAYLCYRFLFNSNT

LYP = molecular target: T2, LYP (Homo sapiens, UniProt Q9Y2R2); test: PTP inhibition assay (pNPP); conditions: pNPP at Km, pH 7.0, 25° C.
T2 sequence (Q9Y2R2 1-807): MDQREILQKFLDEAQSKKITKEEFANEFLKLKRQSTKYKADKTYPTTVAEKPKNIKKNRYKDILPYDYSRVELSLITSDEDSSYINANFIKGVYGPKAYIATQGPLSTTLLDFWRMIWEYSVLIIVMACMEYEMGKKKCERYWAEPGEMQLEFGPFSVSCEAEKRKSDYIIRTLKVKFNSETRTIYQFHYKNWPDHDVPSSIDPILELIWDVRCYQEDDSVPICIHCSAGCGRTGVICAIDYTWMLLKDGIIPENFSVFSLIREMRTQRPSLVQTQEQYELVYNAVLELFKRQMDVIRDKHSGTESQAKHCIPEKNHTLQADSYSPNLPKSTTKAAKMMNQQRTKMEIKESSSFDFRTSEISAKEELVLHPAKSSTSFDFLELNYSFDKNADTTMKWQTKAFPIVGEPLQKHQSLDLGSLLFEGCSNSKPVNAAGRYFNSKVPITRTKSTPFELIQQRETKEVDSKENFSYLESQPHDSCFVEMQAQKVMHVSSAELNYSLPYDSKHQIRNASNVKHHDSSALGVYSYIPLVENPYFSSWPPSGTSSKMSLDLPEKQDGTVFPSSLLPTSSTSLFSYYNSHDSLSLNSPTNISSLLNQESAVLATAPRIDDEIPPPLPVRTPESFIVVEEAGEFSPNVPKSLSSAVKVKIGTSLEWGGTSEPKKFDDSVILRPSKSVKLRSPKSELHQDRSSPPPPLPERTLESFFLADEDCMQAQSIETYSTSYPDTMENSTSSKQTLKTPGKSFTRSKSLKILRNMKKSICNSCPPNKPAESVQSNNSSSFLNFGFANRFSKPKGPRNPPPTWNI

SHP2 = molecular target: T3, SHP2 (Homo sapiens, UniProt Q06124); test: SHP2 phosphatase inhibition assay (pNPP); conditions: pNPP at Km, pH 7.0, 25° C.; read-out: IC50 SHP2
T3 sequence (Q06124 224-528): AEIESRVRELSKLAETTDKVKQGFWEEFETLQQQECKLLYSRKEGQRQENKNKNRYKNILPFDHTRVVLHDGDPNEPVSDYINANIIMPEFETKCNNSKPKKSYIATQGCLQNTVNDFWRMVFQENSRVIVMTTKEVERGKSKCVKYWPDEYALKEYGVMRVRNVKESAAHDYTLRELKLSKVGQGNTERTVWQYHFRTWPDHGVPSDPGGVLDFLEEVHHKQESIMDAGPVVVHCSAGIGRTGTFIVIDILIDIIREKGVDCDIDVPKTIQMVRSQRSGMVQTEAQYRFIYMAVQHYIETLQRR

Laforin = molecular target: T4, Laforin (Homo sapiens, UniProt O95278); test: PTP inhibition assay (pNPP); conditions: for IC50: pNPP at Km, pH 7.0, 25° C., read-out: IC50 Laforin
T4 sequence (O95278 1-331): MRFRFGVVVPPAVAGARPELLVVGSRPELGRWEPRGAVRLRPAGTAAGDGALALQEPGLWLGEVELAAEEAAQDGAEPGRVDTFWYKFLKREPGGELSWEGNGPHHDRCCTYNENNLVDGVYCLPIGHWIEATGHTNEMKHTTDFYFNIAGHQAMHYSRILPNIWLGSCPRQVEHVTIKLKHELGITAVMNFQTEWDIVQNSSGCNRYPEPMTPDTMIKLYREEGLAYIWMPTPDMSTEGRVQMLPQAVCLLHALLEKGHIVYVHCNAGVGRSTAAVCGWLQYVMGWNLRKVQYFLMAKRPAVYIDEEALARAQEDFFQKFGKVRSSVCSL

LMWPTP = molecular target: T5, LMWPTP (Homo sapiens, UniProt P24666); test: PTP inhibition assay (pNPP); conditions: pNPP at Km, pH 7.0, 25° C.
T5 sequence (P24666 1-158): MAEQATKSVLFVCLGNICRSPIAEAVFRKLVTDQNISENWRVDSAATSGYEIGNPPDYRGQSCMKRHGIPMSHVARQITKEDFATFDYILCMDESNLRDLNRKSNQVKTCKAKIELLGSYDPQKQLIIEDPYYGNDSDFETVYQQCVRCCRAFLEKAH

CD45 = molecular target: T6, CD45 (Homo sapiens, UniProt P08575); test: PTP inhibition assay (pNPP); conditions: pNPP at Km, pH 7.0, 25° C.
T6 sequence (P08575 26-1306): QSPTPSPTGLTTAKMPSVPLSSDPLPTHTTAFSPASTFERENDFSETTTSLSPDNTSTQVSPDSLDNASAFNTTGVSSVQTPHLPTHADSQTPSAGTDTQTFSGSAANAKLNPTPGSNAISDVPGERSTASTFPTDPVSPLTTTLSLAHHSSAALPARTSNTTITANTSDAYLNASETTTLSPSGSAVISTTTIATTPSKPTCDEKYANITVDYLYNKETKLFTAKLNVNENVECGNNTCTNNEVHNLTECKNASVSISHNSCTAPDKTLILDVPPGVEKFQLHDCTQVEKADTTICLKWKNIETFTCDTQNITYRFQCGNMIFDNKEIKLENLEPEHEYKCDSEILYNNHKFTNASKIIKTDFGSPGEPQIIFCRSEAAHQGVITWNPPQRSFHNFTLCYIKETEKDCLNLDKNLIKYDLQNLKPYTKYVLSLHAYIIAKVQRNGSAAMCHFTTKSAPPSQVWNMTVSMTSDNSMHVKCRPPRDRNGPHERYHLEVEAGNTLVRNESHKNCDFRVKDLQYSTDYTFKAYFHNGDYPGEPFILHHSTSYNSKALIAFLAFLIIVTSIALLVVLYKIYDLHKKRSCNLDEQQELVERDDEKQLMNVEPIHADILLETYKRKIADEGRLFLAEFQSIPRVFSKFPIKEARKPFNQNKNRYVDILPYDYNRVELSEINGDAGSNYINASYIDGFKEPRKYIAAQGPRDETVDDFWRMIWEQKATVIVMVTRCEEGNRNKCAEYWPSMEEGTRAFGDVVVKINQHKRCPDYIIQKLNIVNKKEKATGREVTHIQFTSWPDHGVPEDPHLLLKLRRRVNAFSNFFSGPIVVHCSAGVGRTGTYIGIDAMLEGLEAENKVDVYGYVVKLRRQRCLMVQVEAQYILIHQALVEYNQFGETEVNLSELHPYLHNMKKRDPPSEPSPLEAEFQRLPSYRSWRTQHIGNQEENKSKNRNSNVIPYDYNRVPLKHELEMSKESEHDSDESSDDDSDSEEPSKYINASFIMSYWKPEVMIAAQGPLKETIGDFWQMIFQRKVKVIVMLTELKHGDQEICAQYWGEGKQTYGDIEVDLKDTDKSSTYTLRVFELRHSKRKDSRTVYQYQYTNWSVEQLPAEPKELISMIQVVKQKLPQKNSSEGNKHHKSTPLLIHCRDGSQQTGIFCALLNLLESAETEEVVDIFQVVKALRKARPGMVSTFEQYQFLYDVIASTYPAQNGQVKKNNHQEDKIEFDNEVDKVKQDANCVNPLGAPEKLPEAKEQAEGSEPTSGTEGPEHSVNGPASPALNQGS

SMILES	IC50 (PTP1B) [µM]	IC50 (LYP) [µM]	IC50 (SHP2) [µM]	IC50 (Laforin) [µM]	IC50 (LMWPTP) [µM]	IC50 (CD45) [µM]	Inhibition of Laforin at 200 μM (Laforin; 200 μM)	Inhibition of Laforin at 100 μM (Laforin; 100 μM)
O=C(Nc1nc2ccccc2s1)C(c1ccccc1F)S(=O)(=O)O (centres unmarked) [Compound L319N15-17]	> 100	> 100	> 100	14	> 100	> 100		
Cc1cc2nc(NC(=O)C(c3ccccc3)S(=O)(=O)O)sc2cc1C (centres unmarked) [Compound L319N15-04]	> 200	90	112	1.1	4.8	> 200		
O=C(Nc1nc2c(Cl)cccc2s1)C(c1ccccc1)S(=O)(=O)O (centres unmarked) [Compound L319N15-01]	70	22	41	2.2	4.6			
O=C(O)c1ccc2nc(NC(=O)C(c3ccccc3)S(=O)(=O)O)sc2c1 (centres unmarked) [Compound L319N15-13]	> 200	31	83	> 200	70	90	did not inhibit	
Cc1ccc2nc(NC(=O)C(c3ccccc3)S(=O)(=O)O)sc2c1 (centres unmarked) [Compound L319N15-08]	> 200	> 200	> 200	2	8.2	> 200		
CCOC(=O)c1ccc2nc(NC(=O)C(c3ccccc3)S(=O)(=O)O)sc2c1 (centres unmarked) [Compound L319N15-11]		28	55	1.7	3.03	70		
O=C(Nc1nc2ccc(O[N+](=O)[O-])cc2s1)C(c1ccccc1)S(=O)(=O)O (centres unmarked) [Compound L319N15-07]	> 200	> 100	> 200	> 200	2.1	> 200		no detectable inhibition
O=C(Nc1nc2ccc(F)cc2s1)C(c1ccccc1)S(=O)(=O)O (centres unmarked) [Compound L319N15-05]	> 200	150	173	1.7	4.2	> 200		
O=C(Nc1nccs1)C(c1ccccc1)S(=O)(=O)O (centres unmarked) [Compound L319N13]	> 100	> 100	> 100	8		> 100		
